From patent publication US20040076659A1, “Additive for livestock feeds” (priority 1994, published 2004)

How the values were obtained:
Red Angus steers = assay: Performance of feedlot cattle, 119 days (Example 6); type: in vivo
Protocol: Three hundred and twenty six Red Angus steers were stratified by weight and divided into eight pens. The pens were then randomly assigned to one of the following four dietary treatments:
3) 0.2% (wt/wt) glycanase enzyme (enzyme)
The enzyme is marketed by GNC Bioferm Inc., Saskatoon, SK. The product contained the following activities (expressed as nmol of reducing sugars released from 1 mg of product per min: xylanase (336.6), β-glucanase (196.0), carboxymethylcellulase (44.4), and amylase (46.3). The basal diet was a total mixed ration consisting of rolled barley, corn silage and canola meal. Tween 80 was diluted with tap water (1 in 5) before it was applied. The total amount of feed required each day for the animals on each treatment was weighed separately in a mixer wagon and the appropriate quantity of Tween 80, enzyme, or their combination applied to it and mixed for ten minutes before feeding. An equal volume of water as applied to the Tween 80 treatment was also applied to the control and enzyme treatment to make the moisture content of the four experimental diets equal. The experimental diets were fed for a total of 119 days. Individual body weights were taken at the beginning and end of the experiment. Group body weights were taken at monthly intervals.

[1] = tested on: rumen microbial cells enzyme source; assay: Microbial protein adsorption to ground barley straw; design: species or system cows
Protocol: For the cellulose adhesion tests, the microbial enzyme source was resuspended and tested for adhesion on to a cellulose. substrate (barley straw, with 4% CP and ground through 0.5 mm sieve). […] 0.1 g of the straw in 5 ml of a bacterial cell-enzyme inoculum suspension, and then following the supernatant protein change with time. Readings were taken at 10, 20, 30, 60, and 120 min. At the end of the adsorption period, the assay contents were centrifuged at 2500 g max for 10 min to precipitate the solids, and the protein in the supernatant was precipitated out by 15% TCA solution and quantified by the Bicichoninic method (Smith et al., “Measurement of protein using bicinchonic acid,” Anal. Biochem. 150:76 (1984)). […]

dairy cows = assay: Two levels of Tween 80, milk production and feed intake in cows under heat stress (Example 5); type: in vivo, Holstein; conditions: for Drop in milk production: week 11 (heat stress)
Text: Seventy-five dairy cows of the Holstein breed were ranked according to lactation number, days in milk and production level and placed into three equal groups. Treatments were then randomly assigned to individual animals within the groups. There were 25 animals in each dietary treatment group. Cows were offered ad libitum access to a total mixed ration (TMR) based on grass silage, corn silage, grass hay and a commercial dairy concentrate. The treatments consisted of:
Treatment 1—Control diet (TMR).
Treatment 2—TMR containing 0.2% (w/w) Tween 80, and
Treatment 3—TMR containing 0.3% (w/w) Tween 80.
The experiment lasted 12 weeks. All cows were fed the control diet during the first week. This period served as a pretrial week. Cows in each treatment group were then fed their experimental diets for ten weeks. Milk production and feed intake were, monitored from the first week (pretrial) until the 12th week (one week after the experimental diets were withdrawn).
Ambient temperatures exceeded 40° C. during weeks 10 and 11 of the experiment resulting in considerable heat stress in the cows. Milk production and feed intake data are discussed in the light of the heat stress.

[2] = tested on: rumen microbial proteinases; assay: Protease activity of mixed rumen microbial cell enzyme source (casein substrate); type: biochemical, cows
Protocol: Two rumen-fistulated, nonlactating cows averaging 623±12.5 kg in weight were fed 5 kg dry matter (DM) of low quality timothy hay twice daily. About 2.5L of rumen fluid was collected through the fistula 4 hrs after the morning feeding at 07:00 hrs. Bulk feed particles were removed by sieving the fluid through a 0.5 mm strain. The fluid was then composited and then stored in a prewarmed (37° C.) thermal container.
A microbial powder was prepared using the acetone-butanol extraction procedure outlined by Mahadevan et al., “Preparation of protease from mixed rumen microorganisms and its use for the in vitro determination of true protein in feedstuffs,” Can. J. Anim. Sci. 67:55 (1987). About 500 g of this powder was prepared and stored at −20° C. Extraction of the proteases was accomplished by stirring 250 g of the powder with 1L of 4° C. cold water (for 1 hr) and then proceeding along Mahadevan's extraction procedure. Only extracts from the filtration with an XM-300 Amicon Filter, (approx. 300 000 molecular weight cutoff—under nitrogen gas), were made, washed twice with distilled water and the retentate freeze dried. This was referred to as the mixed microbial cell enzyme source. It was used in the protein adhesion tests and also in the parallel thiol and protease activity determinations.
Ten grams of the mixed microbial cell enzyme was dissolved in 100 ml warm (37° C.) 0.1 M phosphate buffer, pH 6.8, and used as an enzyme inoculant. The assay matrix consisted of 1 ml enzyme source, 1 ml 2% casein solution, 1 ml 01 M phosphate buffer and 1 ml of either the relevant level of surfactant or an equivalent amount of buffer. Ten levels of the two surfactants, polyoxyethylene sorbitan monoleate (Tween 80) and polyoxyethylene sorbitan monastearate (Tween 60) were tested, viz 0, 0.08, 0.16, 0.24, 0.32, 0.4, 0.8, 1.2, 1.6, and, 2.0% surfactant in the assay mixture.
The protease activity incubations were performed in 50 ml plastic centrifuge tubes, at 37° C. and under a stream of carbon dioxide gas. After 1.5 hr, 1 ml of the assay mixture was removed for the determination of thiols (SH) and disulfides (SS) (Sasago et al., “Determination of sulfhydryl and disulfide groups in milk by p-chloromercuribenzoate-diathizone method,” J. Dairy Sci. 46:1348-1351 (1963)). At the end of 2 hr incubation, the reaction was stopped with 1 ml of 15% TCA (trichloroacetic acid) solution, cooled to 4° C. under an icebath, and centrifuged at 10,000 for 10 min. The free amino acids in the supernatant were assayed using the ninhydrin method (Rosen, “a Modified Colorimetric Analysis For Amino Acids,” Arch. Biochim. Biophys. 67:10 (1957)). The optimal surfactant inclusion level was calculated by direct linear plots on the assumption that the Michaellis-Menten equation applied.

[3] = first calf heifers, 0.2% Tween 80, second week of heat stress
[4] = direct linear plots, Michaelis-Menten assumed

polyoxyethylene sorbitan monoleate [Tween 80]
Average Daily Gain (Red Angus steers; 0.1% Tween 80): 1.69a kg/d
Average daily gain higher than control (Red Angus steers; 0.1% Tween 80): 6.3%
Feed Efficiency (Gain/Feed) (Red Angus steers; 0.1% Tween 80): 0.166
More weight gained than animals on the control diet (Red Angus steers; 0.1% Tween 80): approximately 5.8%
Total Weight Gain (Red Angus steers; 0.1% Tween 80 (dry matter basis)): 219.03a kg
Microbial protein adsorption extent ([1]; 0.05% additive): 1.12b μg/mg
Microbial protein adsorption rate ([1]; 0.05% additive): 0.032b (0.01) μg/mg/min
Microbial protein adsorption extent ([1]; 0.10% additive): 1.21c μg/mg
Microbial protein adsorption rate ([1]; 0.10% additive): 0.034c (0.02) μg/mg/min
Microbial protein adsorption extent ([1]; 0.25% additive): 1.18c μg/mg
Microbial protein adsorption rate ([1]; 0.25% additive): 0.035c (0.01) μg/mg/min
Microbial protein adsorption extent ([1]; 0.50% additive): 1.19c μg/mg
Microbial protein adsorption rate ([1]; 0.50% additive): 0.034c (0.02) μg/mg/min
Weight gain (dairy cows; 0.2% Tween 80, first 30 d): 1 kg
Depression in dry matter intake (dairy cows; 0.2% Tween 80, first week of heat stress): 3.4%
Weight gain (dairy cows; 0.2% Tween 80, last 60 days): 9 kg
Depression in dry matter intake (dairy cows; 0.2% Tween 80, second week of heat stress): 14.4%
Drop in milk production (dairy cows; 0.2% Tween 80): 23.6%
Weight gain (dairy cows; 0.3% Tween 80, first 30 d): 2.5 kg
Depression in dry matter intake (dairy cows; 0.3% Tween 80, first week of heat stress): 6.0%
Weight gain (dairy cows; 0.3% Tween 80, last 60 days): 4.5 kg
Depression in dry matter intake (dairy cows; 0.3% Tween 80, second week of heat stress): 12.6%
Drop in milk production (dairy cows; 0.3% Tween 80): 22%
Fall in milk production (dairy cows; Tween 80 treatments (0.2 and 0.3%), first week of heat stress (week 10)): about 11%
More milk than control, on average (dairy cows; first calf heifers, 0.2% Tween 80): 2 kg/day
Increase in milk over control (dairy cows; [3]): 13.6%
More milk than control (dairy cows; [3]): more than 3.6 kg/day
More milk than control, on average (dairy cows; mature cows, 0.2% Tween 80): 3.54 kg/day
More milk than control, on average (dairy cows; mature cows, 0.3% Tween 80): 3.98 kg/day
Initial rate of proteinase activation ([2]; control=0): 163.5%
Km (additive conc.), proteinase activation [2, 4]: 0.20 ± 0.03b %
Vmax (maximum proteinase activation) [2, 4]: 166.8 ± 8.9b %/unit additive conc.
